Test results published in the supplement of paper PMC10307832.

How the values were obtained:
Assay in all cases: relative viability (nuclei count vs DMSO), 5 days (fraction); higher = more cells survive
ABC-1 = tested on: ABC-1
How it was run: (§1)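 Nuclei were stained with Hoechst during a one-step fixation (final 0.05% Triton X-100, 1% formaldehyde, 1 ug/ml Hoechst) carried out 5 days after dosing, then counted on 4× images. The cells, lung cancer lines in 1536-well plates, had been dosed by pin tool the day after seeding with one drug alone or a fixed anchor-drug dose plus five library-drug doses (not always all listed) in √10 steps. Relative viability is the nuclei count in treated wells divided by that in vehicle wells, and each value is the median of duplicate plates.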

CAL-12T = tested on: CAL-12T
How it was run: as §1

ChaGo-K-1 = tested on: ChaGo-K-1
How it was run: as §1

HCC-366 = tested on: HCC-366
How it was run: as §1

HCC-78 = tested on: HCC-78
How it was run: as §1

LC-2-ad = tested on: LC-2-ad
How it was run: as §1

LOU-NH91 = tested on: LOU-NH91
How it was run: as §1

LU99A = tested on: LU99A
How it was run: as §1

NCI-H1395 = tested on: NCI-H1395
How it was run: as §1

NCI-H1651 = tested on: NCI-H1651
How it was run: as §1

NCI-H1755 = tested on: NCI-H1755
How it was run: as §1

NCI-H1793 = tested on: NCI-H1793
How it was run: as §1

NCI-H1944 = tested on: NCI-H1944
How it was run: as §1

NCI-H2087 = tested on: NCI-H2087
How it was run: as §1

NCI-H2170 = tested on: NCI-H2170
How it was run: as §1

NCI-H2228 = tested on: NCI-H2228
How it was run: as §1

NCI-H2405 = tested on: NCI-H2405
How it was run: as §1

NCI-H3122 = tested on: NCI-H3122
How it was run: as §1

NCI-H460 = tested on: NCI-H460
How it was run: as §1

PC-3 [JPC-3] = tested on: PC-3 [JPC-3]
How it was run: as §1

RERF-LC-KJ = tested on: RERF-LC-KJ
How it was run: as §1

UMC-11 = tested on: UMC-11
How it was run: as §1

## COc1cc2nccc(Oc3ccc(NC(=O)Nc4cc(C)on4)c(Cl)c3)c2cc1OC [Tivozanib] + Cc1nc(Nc2ncc(C(=O)Nc3c(C)cccc3Cl)s2)cc(N2CCN(CCO)CC2)n1 [Dasatinib] (partner 0.075 µM)
ABC-1; first compound 0.005 µM
  relative viability: 0.649
ABC-1; first compound 0.01581 µM
  relative viability: 0.583
ABC-1; first compound 0.05 µM
  relative viability: 0.729
ABC-1; first compound 0.1581 µM
  relative viability: 0.489
ABC-1; first compound 0.5 µM
  relative viability: 0.323
CAL-12T; first compound 0.005 µM
  relative viability: 0.402
CAL-12T; first compound 0.01581 µM
  relative viability: 0.527
CAL-12T; first compound 0.05 µM
  relative viability: 0.481
CAL-12T; first compound 0.1581 µM
  relative viability: 0.343
CAL-12T; first compound 0.5 µM
  relative viability: 0.285
ChaGo-K-1; first compound 0.005 µM
  relative viability: 0.543
ChaGo-K-1; first compound 0.01581 µM
  relative viability: 0.61
ChaGo-K-1; first compound 0.05 µM
  relative viability: 0.626
ChaGo-K-1; first compound 0.1581 µM
  relative viability: 0.602
ChaGo-K-1; first compound 0.5 µM
  relative viability: 0.581
HCC-366; first compound 0.005 µM
  relative viability: 0.582
HCC-366; first compound 0.01581 µM
  relative viability: 0.601
HCC-366; first compound 0.05 µM
  relative viability: 0.671
HCC-366; first compound 0.1581 µM
  relative viability: 0.727
HCC-366; first compound 0.5 µM
  relative viability: 0.587
HCC-78; first compound 0.005 µM
  relative viability: 0.365
HCC-78; first compound 0.01581 µM
  relative viability: 0.387
HCC-78; first compound 0.05 µM
  relative viability: 0.466
HCC-78; first compound 0.1581 µM
  relative viability: 0.263
HCC-78; first compound 0.5 µM
  relative viability: 0.362
LC-2-ad; first compound 0.005 µM
  relative viability: 0.458
LC-2-ad; first compound 0.01581 µM
  relative viability: 0.504
LC-2-ad; first compound 0.05 µM
  relative viability: 0.615
LC-2-ad; first compound 0.1581 µM
  relative viability: 0.268
LC-2-ad; first compound 0.5 µM
  relative viability: 0.208
LOU-NH91; first compound 0.005 µM
  relative viability: 0.514
LOU-NH91; first compound 0.01581 µM
  relative viability: 0.569
LOU-NH91; first compound 0.05 µM
  relative viability: 0.595
LOU-NH91; first compound 0.1581 µM
  relative viability: 0.518
LOU-NH91; first compound 0.5 µM
  relative viability: 0.525
LU99A; first compound 0.005 µM
  relative viability: 0.356
LU99A; first compound 0.01581 µM
  relative viability: 0.599
LU99A; first compound 0.05 µM
  relative viability: 0.656
LU99A; first compound 0.1581 µM
  relative viability: 0.489
LU99A; first compound 0.5 µM
  relative viability: 0.474
NCI-H1395; first compound 0.005 µM
  relative viability: 0.376
NCI-H1395; first compound 0.01581 µM
  relative viability: 0.407
NCI-H1395; first compound 0.05 µM
  relative viability: 0.404
NCI-H1395; first compound 0.1581 µM
  relative viability: 0.386
NCI-H1395; first compound 0.5 µM
  relative viability: 0.371
NCI-H1651; first compound 0.005 µM
  relative viability: 0.291
NCI-H1651; first compound 0.01581 µM
  relative viability: 0.437
NCI-H1651; first compound 0.05 µM
  relative viability: 0.457
NCI-H1651; first compound 0.1581 µM
  relative viability: 0.36
NCI-H1651; first compound 0.5 µM
  relative viability: 0.377
NCI-H1755; first compound 0.005 µM
  relative viability: 0.356
NCI-H1755; first compound 0.01581 µM
  relative viability: 0.415
NCI-H1755; first compound 0.05 µM
  relative viability: 0.432
NCI-H1755; first compound 0.1581 µM
  relative viability: 0.315
NCI-H1755; first compound 0.5 µM
  relative viability: 0.383
NCI-H1793; first compound 0.005 µM
  relative viability: 0.351
NCI-H1793; first compound 0.01581 µM
  relative viability: 0.355
NCI-H1793; first compound 0.05 µM
  relative viability: 0.388
NCI-H1793; first compound 0.1581 µM
  relative viability: 0.204
NCI-H1793; first compound 0.5 µM
  relative viability: 0.428
NCI-H1944; first compound 0.005 µM
  relative viability: 0.236
NCI-H1944; first compound 0.01581 µM
  relative viability: 0.246
NCI-H1944; first compound 0.05 µM
  relative viability: 0.208
NCI-H1944; first compound 0.1581 µM
  relative viability: 0.192
NCI-H1944; first compound 0.5 µM
  relative viability: 0.208
NCI-H2087; first compound 0.005 µM
  relative viability: 0.6
NCI-H2087; first compound 0.01581 µM
  relative viability: 0.742
NCI-H2087; first compound 0.05 µM
  relative viability: 0.794
NCI-H2087; first compound 0.1581 µM
  relative viability: 0.911
NCI-H2087; first compound 0.5 µM
  relative viability: 0.772
NCI-H2170; first compound 0.005 µM
  relative viability: 0.599
NCI-H2170; first compound 0.01581 µM
  relative viability: 0.494
NCI-H2170; first compound 0.05 µM
  relative viability: 0.616
NCI-H2170; first compound 0.1581 µM
  relative viability: 0.348
NCI-H2170; first compound 0.5 µM
  relative viability: 0.569
NCI-H2228; first compound 0.005 µM
  relative viability: 0.431
NCI-H2228; first compound 0.01581 µM
  relative viability: 0.532
NCI-H2228; first compound 0.05 µM
  relative viability: 0.551
NCI-H2228; first compound 0.1581 µM
  relative viability: 0.445
NCI-H2228; first compound 0.5 µM
  relative viability: 0.524
NCI-H2405; first compound 0.005 µM
  relative viability: 0.216
NCI-H2405; first compound 0.01581 µM
  relative viability: 0.242
NCI-H2405; first compound 0.05 µM
  relative viability: 0.202
NCI-H2405; first compound 0.1581 µM
  relative viability: 0.266
NCI-H2405; first compound 0.5 µM
  relative viability: 0.19
NCI-H3122; first compound 0.005 µM
  relative viability: 0.986
NCI-H3122; first compound 0.01581 µM
  relative viability: 0.821
NCI-H3122; first compound 0.05 µM
  relative viability: 0.754
NCI-H3122; first compound 0.1581 µM
  relative viability: 0.604
NCI-H3122; first compound 0.5 µM
  relative viability: 0.887
NCI-H460; first compound 0.005 µM
  relative viability: 0.401
NCI-H460; first compound 0.01581 µM
  relative viability: 0.486
NCI-H460; first compound 0.05 µM
  relative viability: 0.549
NCI-H460; first compound 0.1581 µM
  relative viability: 0.551
NCI-H460; first compound 0.5 µM
  relative viability: 0.529
PC-3 [JPC-3]; first compound 0.005 µM
  relative viability: 0.934
PC-3 [JPC-3]; first compound 0.01581 µM
  relative viability: 1
PC-3 [JPC-3]; first compound 0.05 µM
  relative viability: 0.983
PC-3 [JPC-3]; first compound 0.1581 µM
  relative viability: 0.812
PC-3 [JPC-3]; first compound 0.5 µM
  relative viability: 0.951
RERF-LC-KJ; first compound 0.005 µM
  relative viability: 0.799
RERF-LC-KJ; first compound 0.01581 µM
  relative viability: 0.887
RERF-LC-KJ; first compound 0.05 µM
  relative viability: 0.788
RERF-LC-KJ; first compound 0.1581 µM
  relative viability: 0.856
RERF-LC-KJ; first compound 0.5 µM
  relative viability: 0.583
UMC-11; first compound 0.005 µM
  relative viability: 0.416
UMC-11; first compound 0.01581 µM
  relative viability: 0.46
UMC-11; first compound 0.05 µM
  relative viability: 0.465
UMC-11; first compound 0.5 µM
  relative viability: 0.38
